The subject of one test is HCT116 cells. The test can be described thus: Cell Proliferation/Viability Assay (Cell Titer-Blue). The test is classed as cell-based. The conditions noted are these: Homo sapiens, HCT-116, 3-day (72-hour) incubation, single assay or mean of multiple assays. As to the method:
Cell Proliferation/Viability Assay
Viable cells after a 3-day (72-hour) incubation with ERK compounds were quantified using the Cell Titer-Blue Cell Viability Assay from Promega.
Materials and Methods: HCT116 cells were plated in 96 well micro-plates at a density of 1,000 cells/well. The cells were allowed to attach to micro-plate overnight at 37 °C/5% CO2. After overnight attachment, diluted compounds were then added to the cells at a final concentration of 0.5% DMSO. After 3 days (72 hours) at 37 °C/5% CO2, the number of viable cells was determined using the Cell Titer-Blue Cell Viability Assay from Promega. Briefly, Cell Titer-Blue reagent were added to the cells and incubated for 1 hour. Fluorescence (560nmexcitation/590nmemission) was then read using a fluorescence micro-plate reader. Background from high concentration Erk-inhibited wells was subtracted. Representative data is in TABLE III (infra). The reported IC50 may be from a single assay or the mean of multiple assays.

Test [1] has as its system PMA-stimulated P90RSK(Ser380) phosphorylation. Briefly: Cellular P90RSK(Ser380) Phosphorylation Assay. The test is classed as cell-based. The conditions noted are these: Homo sapiens; HepG2 cells, 1.5 h compound incubation, PMA 100ng/mL 30 min, normalized to GAPDH signal; single assay or mean of multiple assays. Here is the method: Cellular P90RSK(Ser380) Phosphorylation Assay
Inhibition of PMA-stimulated P90RSK(Ser380) phosphorylation was determined by the following in vitro cellular mechanistic assay, which comprises incubating cells with a compound for 1.5 h and quantifying fluorescent pP90RSK(Ser380) signal on fixed cells and normalizing to GAPDH signal.
Materials and Methods: HepG2 cells were obtained from ATCC and grown in DMEM supplemented with 10% fetal bovine serum. Cells were plated in 96-well plates at 35,000 cells/well and allowed to attach overnight at 37 °C/5% CO2. Diluted compounds were then added at a final concentration of 0.5% DMSO. After 1.5 h compound incubation, cells were stimulated with the addition of PMA (phorbol 12-myristate 13-acetate) at a final concentration of 100ng/mL; the PMA stimulation was a 30-min incubation at 37 °C/5% CO2. After the 30-minute PMA stimulation, cells were washed with PBS and fixed in 3.7% formaldehyde in PBS at room temperature for 15-20 min. This was followed by another wash in PBS and then permeabilization in 100% MeOH at room temperature for 10-15 min. Following the permeabilization incubation, cells were washed in PBS/0.05% Tween-20, followed by a block in Odyssey blocking buffer (LI-COR Biosciences) for at least 1 hour. Antibodies to phosphorylated P90RSK(Ser380) (Cell Signaling #9335, rabbit monoclonal) and GAPDH (Fitzgerald 10R-G109a, mouse monoclonal) were added to the cells and incubated overnight at 4 °C. pP90RSK(Ser380) antibody was used at a 1:250 dilution; GAPDH was used at a 1:10,000 dilution. After washing with PBS/0.05% Tween-20, the cells were incubated with fluorescently-labeled secondary antibodies (Anti-rabbit-Alexa Flour680, Invitrogen Cat#A21109; Anti-mouse-IRDye800CW, Rockland Inc. Cat#610-131-121) for 1 h. Both secondary antibodies were used at a 1:1000 dilution. Cells were then washed and analyzed for fluorescence at both wavelengths using the Odyssey Infrared Imaging System (LI-COR Biosciences). Phosphorylated P90RSK(Ser380) signal was normalized to GAPDH signal. Representative data is in TABLE III (infra). The reported IC50 may be from a single assay or the mean of multiple assays.

For test [2], the target named is T1, human ERK-2 (Mitogen Activated Kinase 1) (Homo sapiens, UniProt P28482).
T1 construct: N-terminal 6-His fusion protein in E. coli and corresponding to aa 8-360; 6-His (N); made in house; host or cells: E. coli
T1 sequence (P28482 8-360): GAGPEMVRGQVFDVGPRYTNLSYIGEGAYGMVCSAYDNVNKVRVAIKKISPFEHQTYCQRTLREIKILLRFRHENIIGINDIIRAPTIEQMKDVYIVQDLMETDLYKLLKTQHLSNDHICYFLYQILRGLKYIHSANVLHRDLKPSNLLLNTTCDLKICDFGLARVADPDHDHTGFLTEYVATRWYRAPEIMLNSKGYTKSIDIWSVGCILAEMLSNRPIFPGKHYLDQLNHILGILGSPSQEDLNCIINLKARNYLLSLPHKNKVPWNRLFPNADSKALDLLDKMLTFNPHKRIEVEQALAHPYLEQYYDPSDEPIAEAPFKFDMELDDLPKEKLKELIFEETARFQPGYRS
Briefly: ERK-2 Enzymatic Assay. The test is classed as biochemical. The conditions noted are these: TABLE I; 5nM ERK-2 enzyme, 25µM ATP, S/T17 peptide substrate; single assay or mean of multiple assays. In a few lines:
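Values are single or averaged runs. Reactions used E. coli-expressed 6-His ERK-2 aa 8-360 and Omnia S/T17 peptide substrate at ambient temperature.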

The values that follow come from patent EP2739618B1, “QUINAZOLINE COMPOUNDS AS SERINE/THREONINE KINASE INHIBITORS” (Array Biopharma, Inc., priority 2011, dated 2013).

The IC50 is the concentration needed to halve the response being measured. Read a high IC50 as lower potency. As to `CC(C)Nc1ncc2ccc(C(=O)N[C@H](c3ccc(C(F)(F)F)c(F)c3)[C@@H]3CCCN3)cc2n1` (stereo in doubt) [Compound I-5, 2-isopropylamino-quinazoline-7-carboxylic acid [(S)-(3-fluoro-4-trifluoromethyl-phenyl)-(R)-pyrrolidin-2-yl-methyl]-amide], the IC50 in the test on HCT116 cells came to 298 nM; in test [1], 11.7 nM; in test [2] it was 2.3 nM.
As to `C[C@@H](CO)Nc1ncc2ccc(C(=O)N[C@H](c3ccc(Cl)c(F)c3)c3cnn(C)c3)cc2n1` (stereo in doubt) [Compound I-14, 2-((S)-2-hydroxy-1-methyl-ethylamino)-quinazoline-7-carboxylic acid [(R)-(4-chloro-3-fluoro-phenyl)-(1-methyl-1H-pyrazol-4-yl)-methyl]-amide], the results for the IC50 (with HCT116 cells; in test [1]) were 875 nM and 59.8 nM, respectively.
The corresponding values for `C[C@@H](CO)Nc1ncc2ccc(C(=O)NC(c3ccc(Cl)c(F)c3)c3cnn(C)c3)cc2n1` (stereo partly drawn) [Compound I-1, N-((4-chloro-3-fluorophenyl)(1-methyl-1H-pyrazol-4-yl)methyl)-2-((S)-1-hydroxypropan-2-ylamino)quinazoline-7-carboxamide] are 2400 nM and 75.5 nM.
The corresponding values for `Cn1cc(C(NC(=O)c2ccc3cnc(NC4CCOCC4)nc3c2)c2ccc(Cl)c(F)c2)cn1` (stereo not drawn) [Compound I-2, 2-(Tetrahydro-pyran-4-ylamino)-quinazoline-7-carboxylic acid [(4-chloro-3-fluoro-phenyl)-(1-methyl-1H-pyrazol-4-yl)-methyl]-amide] are 851 nM and 22.7 nM.
Take `O=C(N[C@@H](c1ccc(C(F)(F)F)c(F)c1)[C@@H]1CCCN1)c1ccc2cnc(NC3CCOCC3)nc2c1` [Compound I-3, 2-(Tetrahydropyran-4-ylamino)-quinazoline-7-carboxylic acid [(S)-(3-fluoro-4-tnfluoromethyl-phenyl)-(S)-pyrrolidin-2-yl-methyl]-amide]: the IC50 in the test on HCT116 cells was found to be 272 nM; in test [1], 46 nM; in test [2] it was 2.1 nM.
On to `Cn1ccc([C@@H](NC(=O)c2cc(F)c3cnc(NC4CCOCC4)nc3c2)c2ccc(Cl)c(F)c2)n1` [Compound I-22, (S)-N-((4-chloro-3-fluorophenyl)(1-methyl-1H-pyrazol-3-yl)methyl)-5-fluoro-2-(tetrahydro-2H-pyran-4-ylamino)quinazoline-7-carboxamide], for which the IC50 in the test with HCT116 cells amounted to 274 nM; in test [1], 23.5 nM; in test [2], 1.4 nM.
In the same order, the values of `Cn1cc([C@@H](NC(=O)c2ccc3cnc(N[C@H]4CCOC[C@H]4F)nc3c2)c2ccc(Cl)c(F)c2)cn1` [Compound I-28, 2-((3S,4S)-3-fluoro-tetrahydropyran-4-ylamino)-quinazoline-7-carboxylic acid [(S)-(4-chloro-3-fluoro-phenyl)-(1-methyl-1H-pyrazol-4-yl)-methyl]-amide] are 2100 nM, 87.4 nM and 2.5 nM.
In the case of `O=C(NC(c1ccc(Cl)c(F)c1)c1ncno1)c1ccc2cnc(NC3CCOCC3)nc2c1` (stereo not drawn) [Compound I-34, 2-(tetrahydro-pyran-4-ylamino)-quinazoline-7-carboxylic acid [(4-chloro-3-fluoro-phenyl)-[1,2,4]oxadiazol-5-yl-methyl]-amide], the IC50 with HCT116 cells was determined as 5000 nM; in test [1], 79.1 nM; in test [2], 3.6 nM.
In the same order, the values of `C[C@@H]1CC[C@H]([C@@H](NC(=O)c2ccc3cnc(NC4CCOCC4)nc3c2)c2ccc(Cl)c(F)c2)N1` [Compound I-35, 2-(tetrahydropyran-4-ylamino)-quinazoline-7-carboxylic acid [(S)-(4-chloro-3-fluoro-phenyl)-((2R,5R)-S-methyl-pyrrolidin-2-yl)-methyl]-amide] are 44 nM, 5.3 nM and 2 nM.
As to `O=C(N[C@@H](c1ccc(F)c(Cl)c1)[C@@]1(F)CCNC1)c1ccc2cnc(NC3CCOCC3)nc2c1` [Compound I-39], the results for the IC50 (in the test with HCT116 cells; in test [1]; in test [2]) were 10 nM, 17.4 nM and 1.2 nM, respectively.
